{"source": "patent US20080009511A1", "about": "“Cancer treatment with compounds inhibiting PKC alpha” (priority 2004, published 2008)", "key": {"[1]": {"test_system": "3Y1 rat fibroblast cells overexpressing EGF receptors (3Y1-EGFR cells)", "experiment": "EGF-induced cell transformation (transformed morphology)", "format": "cell-based", "settings": "1 micromole"}, "[2]": {"test_system": "KB oral cancer cells", "experiment": "Cell viability assay (trypan blue dye exclusion), viable cells counted at day 6", "format": "cell-based, human", "settings": "10 micromoles", "procedure": "(§1) The following cancer cells were maintained in Dulbecco's modified Eagle medium (DMEM) supplemented with 10 percent bovine calf serum. Cells were seeded for 24 hours. Then they were treated with PKC inhibitors or left untreated. The cells were then collected periodically and evaluated using trypan blue dye exclusion to assess viability using the method described by C Y Chen, et al., in J. Biol. Chem. 273:16700-16709. Cultures containing about 4×10^4 cells were treated with 5 micromoles of Gö7874 (except that PC3 prostate cancer cells were treated with 10 micromoles) and the viable cells were counted at day 6. […] Cultures containing about 4×10^4 cells were treated with or without 10 micromoles of Gö6850 and the viable cells were counted at day 6. […] Cultures containing about 4×10^4 cells were treated with or without 10 micromoles of NGIC-I and the viable cells were counted at day 6. […] Cultures containing about 4×10^4 cells were treated with or without 10 micromoles of Ro31-7549 and the viable cells were counted at day 6. […] Cultures containing about 4×10^4 cells were treated with or without 10 micromoles of Ro31-8220 and the viable cells were counted at day 6. […] Cultures containing about 4×10^4 cells were treated with or without 10 micromoles of Ro31-8425 and the viable cells were counted at day 6. […] Cultures containing about 4×10^4 cells were treated with or without 10 micromoles of Ro31-0432 and the viable cells were counted at day 6."}, "[3]": {"test_system": "human cancer cells", "experiment": "Cell viability assay, summary over the panel of cancer cells", "format": "cell-based", "settings": "10 micromoles; day 6; cell lines not named as going to apoptosis", "procedure": "The following cancer cells were maintained in Dulbecco's modified Eagle medium (DMEM) supplemented with 10 percent bovine calf serum. Cells were seeded for 24 hours. Then they were treated with PKC inhibitors or left untreated. The cells were then collected periodically and evaluated using trypan blue dye exclusion to assess viability using the method described by C Y Chen, et al., in J. Biol. Chem. 273:16700-16709. Cultures containing about 4×10^4 cells were treated with or without 10 micromoles of Gö6850 and the viable cells were counted at day 6. […] Cultures containing about 4×10^4 cells were treated with or without 10 micromoles of NGIC-I and the viable cells were counted at day 6. […] Cultures containing about 4×10^4 cells were treated with or without 10 micromoles of Ro31-7549 and the viable cells were counted at day 6. […] Cultures containing about 4×10^4 cells were treated with or without 10 micromoles of Ro31-8220 and the viable cells were counted at day 6. […] Cultures containing about 4×10^4 cells were treated with or without 10 micromoles of Ro31-8425 and the viable cells were counted at day 6. […] Cultures containing about 4×10^4 cells were treated with or without 10 micromoles of Ro31-0432 and the viable cells were counted at day 6."}, "[4]": {"test_system": "HepG2 human liver cancer cells", "experiment": "Cell viability assay (trypan blue dye exclusion), viable cells counted at day 6", "format": "cell-based", "settings": "10 micromoles", "procedure": "as §1"}, "[5]": {"test_system": "U251 human glioma cells", "experiment": "Cell viability assay (trypan blue dye exclusion), viable cells counted at day 6", "format": "cell-based", "settings": "10 micromoles", "procedure": "as §1"}, "[6]": {"test_system": "Jurkat cells (a human acute T-cell leukemia cell line)", "experiment": "Cell viability assay (trypan blue dye exclusion), viable cells counted at day 6", "format": "cell-based", "settings": "10 micromoles", "procedure": "as §1"}, "[7]": {"test_system": "Hela human cervical cancer cells", "experiment": "Cell viability assay (trypan blue dye exclusion), viable cells counted at day 6", "format": "cell-based", "settings": "10 micromoles", "procedure": "as §1"}, "[8]": {"test_system": "AGS human gastric cancer cells", "experiment": "Cell viability assay (trypan blue dye exclusion), viable cells counted at day 6", "format": "cell-based", "settings": "10 micromoles", "procedure": "as §1"}, "[9]": {"test_system": "PANC-1 human pancreatic carcinoma cells", "experiment": "Cell viability assay (trypan blue dye exclusion), viable cells counted at day 6", "format": "cell-based", "settings": "10 micromoles", "procedure": "as §1"}, "[10]": {"test_system": "HT29 human colon cancer cells", "experiment": "Cell viability assay (trypan blue dye exclusion), viable cells counted at day 6", "format": "cell-based", "settings": "10 micromoles", "procedure": "as §1"}, "[11]": {"test_system": "NBT-II human bladder cancer cells", "experiment": "Cell viability assay (trypan blue dye exclusion), viable cells counted at day 6", "format": "cell-based", "settings": "10 micromoles", "procedure": "as §1"}, "[12]": {"test_system": "H460 human lung cancer cells", "experiment": "Cell viability assay (trypan blue dye exclusion), viable cells counted at day 6", "format": "cell-based", "settings": "10 micromoles", "procedure": "as §1"}, "[13]": {"test_system": "PC3 human prostate cancer cells", "experiment": "Cell viability assay (trypan blue dye exclusion), viable cells counted at day 6", "format": "cell-based", "settings": "10 micromoles", "procedure": "as §1"}, "[14]": {"test_system": "MDA-MB-468 human breast cancer cells", "experiment": "Cell viability assay (trypan blue dye exclusion), viable cells counted at day 6", "format": "cell-based", "settings": "10 micromoles", "procedure": "as §1"}, "[15]": {"test_system": "A431 human epidermoid carcinoma cells", "experiment": "Cell viability assay (trypan blue dye exclusion), viable cells counted at day 6", "format": "cell-based", "settings": "10 micromoles", "procedure": "as §1"}, "[16]": {"test_system": "3Y1 rat fibroblast cells overexpressing the epidermal growth factor receptor (EGFR)", "experiment": "Soft agar/cell transformation assay", "format": "cell-based", "settings": "1 micromole with EGF (100 ng/ml), in contrast to EGF alone", "description": "1×10^3 3Y1 rat fibroblast cells overexpressing the epidermal growth factor receptor (EGFR) were suspended in top agar (consisting of 20 percent calf serum, 0.38 percent agar and the remainder DMEM) and overlaid onto bottom agar (DMEM, 20 percent calf serum and 0.7 percent agar) as reported by Sementchenko et al., in Onocgen 17:2883-2888."}, "[17]": {"settings": "about 4×10^4 cells seeded, untreated 3.8 ± 0.4"}}, "data": [{"smiles": "Cl.Cn1cc(C2=C(c3c4n(c5ccccc35)CCC(CN)C4)C(=O)NC2=O)c2ccccc21", "note": "(centres unmarked) [Ro31-8425]", "values": [{"measurement": "cell apoptosis during co-treatment", "setting": "[1]; co-treatment with 100 ng/ml EGF", "value": "without detected cell apoptosis"}, {"measurement": "effect on EGF-induced transformed morphology", "setting": "[1]; co-treatment with 100 ng/ml EGF for 48 hours", "value": "partially blocked"}, {"measurement": "cells that went to apoptosis upon treatment", "setting": "[2]", "value": "all"}, {"measurement": "Treated (cell number × 10^5)", "setting": "[2]; [17]", "value": "0 × 10^5"}, {"measurement": "% inhibiton", "setting": "[2]; growth vs untreated", "value": "* (indicates the inhibitor causes significant cell death, and cell number is less than originally seeded cell number.)"}, {"measurement": "inhibition of growth in contrast to untreated cells, range over the other treated cancer cells", "setting": "[3]", "value": "52-90%"}, {"measurement": "Treated (cell number × 10^5)", "setting": "[4]; about 4×10^4 cells seeded, untreated 4.2 ± 0.4", "value": "0.4 × 10^5"}, {"measurement": "% inhibiton", "setting": "[4]; growth vs untreated", "value": 90, "unit": "%"}, {"measurement": "Treated (cell number × 10^5)", "setting": "[5]; about 4×10^4 cells seeded, untreated 9.6 ± 0.5", "value": "1.4 × 10^5"}, {"measurement": "% inhibiton", "setting": "[5]; growth vs untreated", "value": 85, "unit": "%"}, {"measurement": "cells that went to apoptosis upon treatment", "setting": "[6]", "value": "significant number"}, {"measurement": "Treated (cell number × 10^5)", "setting": "[6]; about 4×10^4 cells seeded, untreated 8.8 ± 0.4", "value": "0.3 × 10^5"}, {"measurement": "% inhibiton", "setting": "[6]; growth vs untreated", "value": "* (indicates the inhibitor causes significant cell death, and cell number is less than originally seeded cell number.)"}, {"measurement": "cells that went to apoptosis upon treatment", "setting": "[7]", "value": "all"}, {"measurement": "Treated (cell number × 10^5)", "setting": "[7]; about 4×10^4 cells seeded, untreated 3.4 ± 0.4", "value": "0 × 10^5"}, {"measurement": "% inhibiton", "setting": "[7]; growth vs untreated", "value": "* (indicates the inhibitor causes significant cell death, and cell number is less than originally seeded cell number.)"}, {"measurement": "cells that went to apoptosis upon treatment", "setting": "[8]", "value": "all"}, {"measurement": "Treated (cell number × 10^5)", "setting": "[8]; about 4×10^4 cells seeded, untreated 2.4 ± 0.3", "value": "0 × 10^5"}, {"measurement": "% inhibiton", "setting": "[8]; growth vs untreated", "value": "* (indicates the inhibitor causes significant cell death, and cell number is less than originally seeded cell number.)"}, {"measurement": "cells that went to apoptosis upon treatment", "setting": "[9]", "value": "all"}, {"measurement": "Treated (cell number × 10^5)", "setting": "[9]; about 4×10^4 cells seeded, untreated 2.1 ± 0.3", "value": "0 × 10^5"}, {"measurement": "% inhibiton", "setting": "[9]; growth vs untreated", "value": "* (indicates the inhibitor causes significant cell death, and cell number is less than originally seeded cell number.)"}, {"measurement": "Treated (cell number × 10^5)", "setting": "[10]; [17]", "value": "0.6 × 10^5"}, {"measurement": "% inhibiton", "setting": "[10]; growth vs untreated", "value": 85, "unit": "%"}, {"measurement": "cells that went to apoptosis upon treatment", "setting": "[11]", "value": "significant number"}, {"measurement": "Treated (cell number × 10^5)", "setting": "[11]; about 4×10^4 cells seeded, untreated 2.9 ± 0.4", "value": "0.3 × 10^5"}, {"measurement": "% inhibiton", "setting": "[11]; growth vs untreated", "value": "* (indicates the inhibitor causes significant cell death, and cell number is less than originally seeded cell number.)"}, {"measurement": "cells that went to apoptosis upon treatment", "setting": "[12]", "value": "all"}, {"measurement": "Treated (cell number × 10^5)", "setting": "[12]; about 4×10^4 cells seeded, untreated 2.4 ± 0.2", "value": "0 × 10^5"}, {"measurement": "% inhibiton", "setting": "[12]; growth vs untreated", "value": "* (indicates the inhibitor causes significant cell death, and cell number is less than originally seeded cell number.)"}, {"measurement": "Treated (cell number × 10^5)", "setting": "[13]; about 4×10^4 cells seeded, untreated 7.1 ± 0.3", "value": "3 × 10^5"}, {"measurement": "% inhibiton", "setting": "[13]; growth vs untreated", "value": 53, "unit": "%"}, {"measurement": "cells that went to apoptosis upon treatment", "setting": "[14]", "value": "significant number"}, {"measurement": "Treated (cell number × 10^5)", "setting": "[14]; about 4×10^4 cells seeded, untreated 6.1 ± 0.4", "value": "0.1 ± 0.05 × 10^5"}, {"measurement": "% inhibiton", "setting": "[14]; growth vs untreated", "value": "* (indicates the inhibitor causes significant cell death, and cell number is less than originally seeded cell number.)"}, {"measurement": "Treated (cell number × 10^5)", "setting": "[15]; about 4×10^4 cells seeded, untreated 5.4 ± 0.4", "value": "2.6 × 10^5"}, {"measurement": "% inhibiton", "setting": "[15]; growth vs untreated", "value": 52, "unit": "%"}, {"measurement": "reduction of colony number in soft agar", "setting": "[16]", "value": 72, "unit": "%"}]}]}
